These compounds were tested against T1, Corticosteroid-binding globulin (Homo sapiens, UniProt P08185) (assay: Binding affinity to human CBG receptor (corticosteroid-binding globulins)).
T1 sequence (P08185 whole entry): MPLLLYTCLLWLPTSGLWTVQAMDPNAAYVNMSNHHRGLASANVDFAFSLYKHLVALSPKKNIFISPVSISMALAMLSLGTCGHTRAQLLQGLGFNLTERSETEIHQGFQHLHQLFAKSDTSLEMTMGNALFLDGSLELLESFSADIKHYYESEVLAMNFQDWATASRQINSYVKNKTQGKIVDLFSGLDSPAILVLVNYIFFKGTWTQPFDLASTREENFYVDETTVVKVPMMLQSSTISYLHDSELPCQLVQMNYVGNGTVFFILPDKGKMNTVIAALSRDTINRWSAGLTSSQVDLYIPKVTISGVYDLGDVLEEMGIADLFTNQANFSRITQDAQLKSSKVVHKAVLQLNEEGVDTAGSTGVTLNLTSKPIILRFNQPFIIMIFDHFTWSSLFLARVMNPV

Which Ki does the source give for `CC(=O)[C@@]1(O)[C@H](O)C[C@H]2[C@@H]3CCC4=CC(=O)CC[C@]4(C)[C@H]3CC[C@@]21C` here?
Its Ki is 0.562 µM.

`CC(=O)[C@H]1CC[C@H]2[C@@H]3CCC4=CC(=O)CC[C@@H]4[C@H]3CC[C@]12C` was tested. Which Ki did it give?
The Ki was 0.151 µM.

For `CC(=O)[C@H]1CC[C@H]2[C@@H]3CCC4=CC(=O)CC[C@]4(C)[C@H]3C(=O)C[C@]12C`, which Ki is on record?
The Ki was 0.166 µM.

How did the Ki turn out when `CC1C[C@@]2(C)C(=CC1=O)CC[C@@H]1[C@@H]2C(=O)C[C@@]2(C)[C@H]1CC[C@]2(O)C(=O)CO` (stereo partly specified) was run?
Its Ki is 0.0204 µM.

With `CC(=O)C1CCC2C3C[C@H](C)C4=CC(=O)CCC4(C)C3CCC12C` (stereo partly specified) as the compound, how does the Ki read?
The Ki was 0.0759 µM.

`C[C@@H]1C[C@@]2(C)C(=CC1=O)CC[C@H]1[C@@H]3CC[C@](O)(C(=O)CO)[C@@]3(C)C[C@H](O)[C@@]12F` was tested. Which Ki did it give?
The Ki was 1.58 µM.

Which Ki does the source give for `C[C@]12CCC(=O)C=C1CCC1[C@@H]2C(=O)C[C@@]2(C)[C@H]1CC[C@]2(O)C(=O)CO` (single isomer, unassigned) [CORTISONE] here?
Its Ki is 0.129 µM.

`C[C@]12C=CC(=O)C=C1CCC1[C@@H]2[C@@H](O)C[C@@]2(C)[C@H]1CC[C@]2(O)C(=O)CO` (single isomer, unassigned) [PREDNISOLONE] was tested. Which Ki did it give?
Its Ki is 0.0309 µM.

Which Ki does the source give for `C[C@]12C[C@H](O)[C@H]3[C@@H](CCC4=CC(=O)CC[C@@]43C)[C@@H]1CC[C@@H]2C(=O)CO` (stereo in doubt; form 1) [CORTICOSTERONE] here?
The Ki was 0.0631 µM.

With `C[C@]12C[C@H](O)[C@H]3[C@@H](CCC4=CC(=O)CC[C@@]43C)[C@@H]1CC[C@@H]2C(=O)CO` (stereo in doubt; form 2) [CORTICOSTERONE] as the compound, how does the Ki read?
The Ki was 0.0132 µM.

How did the Ki turn out when `C[C@]12CCC(=O)C=C1CC[C@@H]1[C@@H]2[C@@H](O)C[C@]2(C=O)[C@@H](C(=O)CO)CC[C@@H]12` [ALDOSTERONE] was run?
The Ki was 0.525 µM.

With `C[C@]12CC[C@H](O)C[C@@H]1CC[C@@H]1[C@@H]2CC[C@]2(C)[C@@H](O)CC[C@@H]12` [ANDROSTANEDIOL] as the compound, how does the Ki read?
The Ki was 10 µM.

For `C[C@]12CCC(=O)C=C1CC[C@@H]1[C@@H]2CC[C@]2(C)C(=O)CC[C@@H]12` [ANDROSTENEDIONE], which Ki is on record?
Its Ki is 1.74 µM.

`C[C@]12CCC(=O)C=C1CC[C@@H]1[C@@H]2CC[C@@]2(C)[C@H]1CC[C@]2(O)C(=O)CO` [CORTODOXONE] was tested. Which Ki did it give?
The Ki was 0.0132 µM.

Which Ki does the source give for `C[C@]12CC[C@H]3[C@@H](CCC4=CC(=O)CC[C@@]43C)[C@@H]1CC[C@@H]2C(=O)CO` [DESOXYCORTICOSTERONE] here?
The Ki was 0.0224 µM.

`C[C@]12CC[C@@H]3c4ccc(O)cc4CC[C@H]3[C@@H]1CC[C@@H]2O` [ESTRADIOL] was tested. Which Ki did it give?
Its Ki is 10 µM.

Which Ki does the source give for `C[C@]12CC[C@@H]3c4ccc(O)cc4CC[C@H]3[C@@H]1C[C@@H](O)[C@@H]2O` [ESTRIOL] here?
Its Ki is 10 µM.

Which Ki does the source give for `C[C@]12CC[C@@H]3c4ccc(O)cc4CC[C@H]3[C@@H]1CCC2=O` [ESTRONE] here?
Its Ki is 10 µM.

`CC(=O)OCC(=O)[C@@]1(O)CC[C@H]2[C@@H]3CCC4=CC(=O)CC[C@]4(C)[C@H]3[C@@H](O)C[C@@]21C` [HYDROCORTISONE ACETATE] was tested. Which Ki did it give?
The Ki was 0.0282 µM.

How did the Ki turn out when `CC(=O)[C@@]1(O)CC[C@H]2[C@@H]3CC[C@@H]4C[C@H](O)CC[C@]4(C)[C@H]3CC[C@@]21C` [HYDROXYPREGNENOLONE] was run?
Its Ki is 10 µM.

Which Ki does the source give for `CC(=O)[C@@]1(O)CC[C@H]2[C@@H]3CCC4=CC(=O)CC[C@]4(C)[C@H]3CC[C@@]21C` [HYDROXYPROGESTERONE] here?
Its Ki is 0.0182 µM.

For `C[C@]12CC[C@H]3[C@@H](CCC4=CC(=O)CC[C@@H]43)[C@@H]1CC[C@@H]2O` [NANDROLONE], which Ki is on record?
Its Ki is 0.724 µM.

`C[C@]12CC[C@H](O)CC1=CC[C@@H]1[C@@H]2CC[C@]2(C)C(=O)CC[C@@H]12` [PRASTERONE] was tested. Which Ki did it give?
Its Ki is 10 µM.

For `CC(=O)[C@H]1CC[C@H]2[C@@H]3CC=C4C[C@@H](O)CC[C@]4(C)[C@H]3CC[C@]12C` [PREGNENOLONE], which Ki is on record?
The Ki was 5.89 µM.

How did the Ki turn out when `CC(=O)[C@H]1CC[C@H]2[C@@H]3CCC4=CC(=O)CC[C@]4(C)[C@H]3CC[C@]12C` [PROGESTERONE] was run?
Its Ki is 0.0417 µM.

How did the Ki turn out when `C[C@]12CC[C@H]3[C@@H](CCC4=CC(=O)CC[C@@]43C)[C@@H]1CC[C@@H]2O` [TESTOSTERONE] was run?
The Ki was 0.191 µM.
